Results from patent US11466047B2, “Cyclic di-nucleotide compounds as sting agonists” (Merck Sharp & Dohme Corp., priority 2017, dated 2022).
pEC50: −log10 of the molar value. Read-outs that look alike come from different tables or passages of the source.

Tests used:
full-length HAQ STING = full-length HAQ STING (Homo sapiens (Human), UniProt Q86WV6, G230A/H232R/R293Q/R71H); assay: 3H-cGAMP filtration binding assay (HAQ STING); conditions: competition with tritiated cGAMP ligand, HAQ STING membrane
full-length HAQ STING, sequence (Q86WV6 whole entry, looked up, stated change not applied): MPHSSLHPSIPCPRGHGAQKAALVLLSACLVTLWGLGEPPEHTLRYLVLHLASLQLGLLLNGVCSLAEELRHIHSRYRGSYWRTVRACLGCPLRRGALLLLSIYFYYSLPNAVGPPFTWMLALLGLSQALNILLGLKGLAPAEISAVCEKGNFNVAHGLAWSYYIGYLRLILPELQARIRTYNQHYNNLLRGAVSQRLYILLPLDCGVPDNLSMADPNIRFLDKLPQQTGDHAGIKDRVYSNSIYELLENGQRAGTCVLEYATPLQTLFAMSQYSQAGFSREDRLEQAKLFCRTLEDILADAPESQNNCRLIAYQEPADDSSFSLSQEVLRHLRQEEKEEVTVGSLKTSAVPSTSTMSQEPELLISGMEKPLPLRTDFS
Text: The ability of compounds to bind STING is quantified by the ability to compete with tritiated cGAMP ligand for human STING receptor membrane using a radioactive filter-binding assay. The binding assay employs STING receptor obtained from Hi-Five cell membranes overexpressing full-length HAQ STING prepared in-house and tritiated cGAMP ligand also purified in-house.
(§1) The ability of compounds to bind STING is quantified by their ability to compete with tritiated cGAMP ligand for human STING receptor membrane using a radioactive filter-binding assay. The binding assay employs STING receptor obtained from Trichoplusia ni cell membranes (T.ni; Expression Systems, cat #94-002F, www.expressionsystems.com) overexpressing full-length HAQ STING and tritiated cGAMP ligand.
The basic HAQ STING filtration assay protocol is as follows:
The compounds were serially titrated by the Hamilton STARPlus CORE in a 96-well plate (Greiner, #651201) using a 1:3 ten-point dose response format. After compound preparation, a 2.2 ug/ml working concentration of STING membrane (SEQ. ID. No. 1) was prepared by diluting concentrated membrane into assay buffer (lx PBS; Invitrogen #SH30028.02) and douncing 7× using a manual tissue homogenizer (Wheaton, #357546). 148 uL of prepared membrane was then manually added to each well of a 96-well deep-well polypropylene plate (Fisher Scientific, #12-566-121). Following membrane addition, 2 uL of either titrated test compound, DMSO control (Sigma #276855), or cold cGAMP control was added to the appropriate wells using a BIOMEK FX. Compound and membrane then preincubated for 60 min at RT to allow compound binding to equilibrate. Following equilibration, 8 nM of [^3H]c-GAMP ligand was prepared by diluting into assay buffer, and 50 uL of this working stock was then manually added to each well of the assay plate. Plates were then incubated at RT for 60 min, and the contents of each assay plate were then filtered through a 96-well GF/B filter plate (PerkinElmer, #6005250) using a TOMTEC MACH III Cell Harvester equipped with 20 mM HEPES buffer (Fisher Scientific, #BP299500). The filter plates were then dried at 55° C. for 30 min using a pressurized oven before 30 uL of ULTIMA GOLD F scintillate was added to each well. Tritium levels for each reaction well were then measured using a PerkinElmer TopCount plate reader.
(§2) After normalization to controls, the percent activity for each compound concentration was calculated by measuring the amount of remaining radioactivity. The plot of percent activity versus the log of compound concentration was fit with a 4-parameter dose response equation to calculate EC50 values.

THP1 cells = assay: IFN-β secretion in THP1 cell culture (5 h); assay type: cell-based, human; conditions: 30 μM compound, relative to 2′3′-cGAMP at 30 μM; for activation at 30 µM: Homo sapiens, THP-1, 5 h, read-out: % Effect at 30 μM relative to 2′3′-cGAMP
Method: The ability of compounds to stimulate the secretion of interferon-beta from THP1 cells was measured using a human IFN-β AlphaLISA kit (Perkin Elmer, Cat. No. AL265F). The basic protocol is as follows:
A Labcyte Echo 550 acoustic dispenser was used to transfer 120 nL of compound dissolved in DMSO into the wells of an empty, sterile 384-well microplate, (Corning, Cat. No. 3712). THP1 cells (American Type Culture Collection, Cat. No. TIB202) previously frozen in Recovery Medium (Life Technologies, Cat. No. 12648-010) were thawed and immediately diluted 10-fold into 37° C. assay medium (RPMI 1640+L-Glutamine & phenol red, Life Technologies, Cat. No. 11875-085; 0.5% heat inactivated fetal bovine serum, Sigma Aldrich, Cat. No. F4135; 1 mM Sodium Pyruvate, Life Technologies, Cat. No. 11360-070; lx non-essential amino acids; Life Technologies, Cat. No. 11140-050). The cell viability and count was ascertained using a Beckman Coulter V-Cell XR cell counter. The cell suspension was centrifuged at 200×g for 5 min at RT. Cells were resuspended to a density of 0.8×10^6/mL in 37° C. assay medium. Subsequent liquid transfers were performed using either a Matrix electronic multichannel pipette or an Agilent Bravo Automated Liquid Handling Platform.
The assay was started by dispensing 40 μL of the previously prepared cell suspension into the wells of the plate containing compounds. After 5 h incubation at 37° C., 5% CO2 in a humidified atmosphere, the plate of cells and compounds was centrifuged at 200×g for 5 min at RT. From each well, 5 μL of supernatant was transferred into corresponding wells of a white 384-well plate (Perkin Elmer, Cat. No. 6005620). To these supernatant-containing wells was added 10 μL of 5× Anti-Analyte Acceptor beads (50 μg/mL of AlphaLISA HiBlock Buffer) and incubated for 30 min at RT while shaking on an orbital plate shaker. To each well was added 10 μL of 5× Biotinylated Antibody Anti-analyte (5 nM in AlphaLISA HiBlock Buffer) and incubated on an orbital plate shaker for 60 min at RT or overnight at 4° C. To each well was added 25 μL of 2×SA-Donor beads (80 μg/mL in AlphaLISA HiBlock Buffer) and incubated for 30-45 min at RT in the dark while shaking on an orbital plate shaker. The plate was then read on a Perkin Elmer Envision (λex=680 nm, λem=570 nm). The percent effect of the AlphaLISA signal at each compound concentration was calculated based on 30 uM cGAMP positive controls and 0.3% DMSO negative controls. The plot of percent effect versus the log of compound concentration was fit with a 4-parameter concentration response equation to calculate EC50 values. The test compounds were tested at concentrations 30000, 10000, 3333, 1111, 370.4, 123.4, 41.2, 13.7, 4.6, and 1.5 nM with 0.3% residual DMSO. The control compound, cGAMP was tested at concentrations 100000, 33333, 11111, 3704, 1235, 412, 137, 46, and 15 nM with 0.3% residual DMSO.
Compounds of the disclosure were evaluated for IFN-β secretion in THP1 cell culture as described above. The following table tabulates the biological data for these compounds as percent activation relative to 2′3′-cGAMP at the 30 μM concentration.

full-length WT STING = full-length WT STING (Homo sapiens (Human), UniProt Q86WV6, H232R); assay: 3H-cGAMP filtration binding assay (WT STING); conditions: WT STING membrane
full-length WT STING, sequence (Q86WV6 whole entry, looked up, stated change not applied): as above
Method: as §1, with “#94-002F,” for “#94-002F, www.expressionsystems.com)”, “WT” for “HAQ”
The basic WT STING filtration assay protocol is as follows:
16 nM of [^3H] c-GAMP ligand was prepared by diluting into assay buffer, and 50 uL of this working stock was manually added to each well of the assay plate. After ligand addition, 2 uL of either titrated test compound, DMSO control (Sigma #276855), or cold cGAMP control was added to the appropriate wells using a BIOMEK FX. The serially titrated compound was prepared on a Hamilton STARPlus CORE in a 96-well plate (Greiner, #651201) using a 1:3 ten-point dose response format. Following compound addition, a 2.2 ug/ml working concentration of STING membrane (SEQ. ID. No. 3) was prepared by diluting concentrated membrane into assay buffer (1×PBS; Invitrogen #SH30028.02) and douncing 7× using a manual tissue homogenizer (Wheaton, #357546). 148 uL of this prepared membrane was then manually added to each well of a 96-well deep-well polypropylene plate (Fisher Scientific, #12-566-121). Compound, ligand, and membrane then incubated for 60 min at RT before the contents of each assay plate were filtered through a 96-well GF/B filter plate (PerkinElmer, #6005250) using a TOMTEC MACH III Cell Harvester equipped with 20 mM HEPES buffer (Fisher Scientific, #BP299500). The filter plates were then dried at 55° C. for 30 min using a pressurized VWR oven before 30 uL of ULTIMA GOLD F scintillate was added to each well. Tritium levels for each reaction well were then measured using a PerkinElmer TopCount plate reader.
as §2

[1] = competition with tritiated cGAMP ligand, read-out: EC50

Structure (SMILES) | pEC50 (full-length HAQ STING) | activation at 30 µM (THP1 cells) [%] | pEC50 (full-length WT STING; [1]) | % Effect at 30 μM relative to 2′3′-cGAMP (THP1 cells) [%] | pEC50 (full-length WT STING; EC50, competition with tritiated cGAMP ligand)
Nc1nc2c(ncn2[C@@H]2S[C@@H]3COP(=S)(S)O[C@H]4[C@H](F)[C@H](n5cnc6c(N)ncnc65)O[C@@H]4COP(O)(=S)O[C@@H]2[C@@H]3O)c(=O)[nH]1 (stereo partly drawn) [Example 16, 2-amino-9-[(5R,7R,8R,12aR,14R,15S,15aR,16S)-14-(6-amino-9H-purin-9-yl)-15-fluoro-10,16-dihydroxy-2-sulfanyl-2,10-disulfidooctahydro-12H-5,8-methanofuro[3,2-l][1,3,9,11,6,2,10]tetraoxathiadiphosphacyclotetradecin-7-yl]-1,9-dihydro-6H-purin-6-one] | 8.30 | 107 | 7.74 |  | 
Nc1nc2c(ncn2[C@@H]2O[C@@H]3COP(=S)(S)O[C@H]4C[C@H](n5ccc6c(N)ncnc65)O[C@@H]4COP(O)(=S)O[C@@H]2C3)c(=O)[nH]1 (single isomer, unassigned) [Example 6] | 7.55 |  | 6.94 | 91 | 
Nc1nc2c(ncn2[C@@H]2S[C@@H]3COP(=S)(S)O[C@H]4[C@H]5OC[C@]4(COP(=O)(O)O[C@@H]2[C@@H]3O)O[C@H]5n2cnc3c(N)ncnc32)c(=O)[nH]1 (stereo partly drawn) [Example 21, 2-amino-9-[(5R,7R,8R,12aR,14R,15R, 15aS,18S)-14-(6-amino-9H-purin-9-yl)-10,18-dihydroxy-10-oxido-2-sulfanyl-2-sulfidohexahydro-14H-15,12a-(epoxymethano)-5,8-methanofuro[3,2-1][1,3,9,11,6,2,10]tetraoxathiadiphosphacyclotetradecin-7(12H)-yl]-1,9-dihydro-6H-purin-6-one] | 6.66 | 45 | 5.81 |  | 
Nc1nc2c(ncn2[C@@H]2O[C@@H]3COP(=S)(S)O[C@H]4C[C@H](n5ccc6c(N)ncnc65)O[C@@H]4COP(O)(=S)O[C@@H]2C3)c(=O)[nH]1 (single isomer, unassigned) [Example 5] | > 9.00 | 95 | 8.10 |  | 
Nc1nc2c(ncn2[C@@H]2O[C@@H]3COP(=S)(S)O[C@H]4[C@H]5OC[C@]4(COP(=O)(O)O[C@@H]2[C@H]3F)O[C@H]5n2cnc3c(N)ncnc32)c(=O)[nH]1 (stereo partly drawn) [Example 17, 2-amino-9-[(5R,7R,8S,12aR,14R,15R,15aS,18S)-14-(6-amino-9H-purin-9-yl)-18-fluoro-10-hydroxy-10-oxido-2-sulfanyl-2-sulfidohexahydro-14H-15,12a-(epoxymethano)-5,8-methanofuro[3,2-l][1,3,6,9,11,2,10]pentaoxadiphosphacyclotetradecin-7(12H)-yl]-1,9-dihydro-6H-purin-6-one] | 7.82 | 145 |  |  | 
Nc1nc2c(ncn2[C@@H]2O[C@@H]3COP(=S)(S)O[C@H]4C[C@H](n5cnc6c(N)ncnc65)O[C@@H]4COP(O)(=S)O[C@@H]2C3)c(=O)[nH]1 (single isomer, unassigned) [Example 3] | 8.70 | 128 | 8.40 |  | 
Nc1nc2c(ncn2[C@@H]2O[C@@H]3COP(=S)(S)O[C@H]4[C@H](F)[C@H](n5cnc6c(N)ncnc65)O[C@@H]4COP(O)(=S)O[C@@H]2[C@@H]3F)c(=O)[nH]1 (single isomer, unassigned) [Example 2] | 8.70 |  |  | 175 | 8.05
Nc1nc2c(ncn2[C@@H]2O[C@@H]3COP(=S)(S)O[C@H]4C[C@H](c5cnc6c(N)ncnn56)O[C@@H]4COP(O)(=S)O[C@@H]2C3)c(=O)[nH]1 (single isomer, unassigned) [Example 8] | 8.15 |  | 7.89 | 110 | 
Nc1nc2c(ncn2[C@@H]2O[C@@H]3COP(=S)(S)O[C@H]4C[C@H](c5cnc6c(N)ncnn56)O[C@@H]4COP(O)(=S)O[C@@H]2C3)c(=O)[nH]1 (single isomer, unassigned) [Example 7] | > 9.00 |  | > 9.00 | 173 | 
Nc1nc2c(ncn2[C@@H]2O[C@@H]3COP(O)(=S)O[C@H]4[C@H](F)[C@H](n5cnc6c(N)ncnc65)O[C@@H]4COP(=S)(S)O[C@@H]2[C@@H]3F)c(=O)[nH]1 (single isomer, unassigned) [Example 13] |  |  | 6.65 | 95 | 
